The source of these data is patent publication US8778970B2, “Benzyl piperidine compound” (Dainippon Sumitomo Pharma Co., Ltd, priority 2009, dated 2014).

Usually Ki stands for the dissociation constant of the complex between target and ligand, obtained from inhibition or displacement. Usually IC50 stands for the concentration that gives 50% inhibition.

Data set [1] concerns the target human serotonin transporter (h-SERT) (Homo sapiens (Human), UniProt P31645). Nature of the data set: [3H] citalopram binding screening test for inhibitory effect on human serotonin reuptake. The following applies: h-SERT/CHO membrane preparation, [3H] citalopram approx. 2 nM; read-out: h-SERT binding inhibition constant (Ki). On the procedure: Screening Test Using [^3H] Citalopram Binding for Evaluating Inhibitory Effect on Human Serotonin Reuptake
1-1 Cells Used and Preparation of Membrane Preparation
CHO cells expressing a human serotonin transporter (h-SERT) (h-SERT/CHO) were used in the experiment. The cells were cultured in F12 containing 10% FCS, 500 μg/ml Geneticin and 100 U/ml penicillin-100 μg/ml streptomycin (all manufactured by Sigma-Aldrich Corp.) in a 5% CO2 incubator. The cells dissociated and collected therefrom using SERT buffer (50 mM Tris-HCl containing 120 mM NaCl and 5 mM KCl (pH=7.4)) were homogenized using a Teflon (R) homogenizer and then centrifuged (50,000×g, 30 min, 4° C.). The precipitate was resuspended in an appropriate amount of SERT buffer and stored at −80° C. until use. The amount of the protein in the membrane preparation were determined using bovine serum albumin (manufactured by Sigma-Aldrich Corp.) as standards and Dye Reagent Concentrate (manufactured by Bio-Rad Laboratories, Inc.).
1-2 Receptor Binding Experiment
[^3H] citalopram binding was assayed according to the method of Owens et al. [Owens M. J. et al., J. Pharm. […] Specifically, 50 μl of [^3H] citalopram (final concentration: approximately 2 nM) diluted with SERT buffer, 149 μl of the h-SERT/CHO membrane preparation (40 μg/well in terms of the amount of the protein), and 1 μl of a solution of a test drug dissolved in DMSO were added to prepare 200 μl in total of a solution. This solution was reacted at room temperature for 60 minutes and then immediately suction-filtered at a low pressure using a glass fiber filter paper coated with a 0.05% aqueous polyethyleneimine solution. The glass fiber filter paper was washed twice with 250 μl of SERT buffer and then transferred to a glass vial containing 4 ml of ACS-II (manufactured by GE Healthcare (formerly Amersham Biosciences)). Radioactivity remaining on the filter paper was measured using a liquid scintillation counter. The nonspecific binding of [^3H] citalopram was defined as a binding amount in the presence of 1 μM clomipramine.
The smaller numeric value of the h-SERT binding inhibition constant Ki means a higher inhibitory effect on human serotonin reuptake.

For data set [2], the target named is human serotonin 1A receptor (h-5-HT1A) (Homo sapiens (Human), UniProt P08908). Nature of the data set: [3H] 8-OH-DPAT binding test for affinity for human serotonin 1A receptor. As to conditions: h-5-HT1A/CHO membrane preparation, [3H] 8-OH-DPAT 0.5 nM; read-out: h-5-HT1A binding inhibition constant (Ki). On the procedure:
[^3H] 8-OH-DPAT Binding Test for Evaluating Affinity for Human Serotonin 1A Receptor
2-1 Cells Used and Preparation of Membrane Preparation
CHO cells expressing a human serotonin 1A receptor (h-5-HT1A) (h-5-HT1A/CHO) were used in the experiment. The cells were cultured in F12 containing 10% FCS, 500 μg/ml Geneticin and 100 U/ml penicillin-100 μg/ml streptomycin (all manufactured by Sigma-Aldrich Corp.) in a 5% CO2 incubator. Membrane preparation were prepared according to the method of Yabuuchi et al.^3). Specifically, the cells dissociated and collected therefrom using 50 mM Tris-HCl (pH=7.4) were homogenized using a Teflon® homogenizer and then centrifuged (48,000×g, 20 min, 4° C.). The precipitate was resuspended in an appropriate amount of 50 mM Tris-HCl (pH=7.4) and stored at −80° C. until use. The amount of the protein in the membrane preparation were determined using bovine serum albumin (manufactured by Sigma-Aldrich Corp.) as standards and Dye Reagent Concentrate (manufactured by Bio-Rad Laboratories, Inc.).
2-2 Receptor Binding Experiment
50 μl of [^3H] 8-OH-DPAT (final concentration: 0.5 nM), 1 μl of a test drug solution, and 149 μl of the h-5-HT1A/CHO membrane preparation (25 μg/well in terms of the amount of the protein) were added into a buffer containing 50 mM Tris-HCl (pH=7.4) and 4 mM CaCl2, and 200 μl in total of the reaction solution was used in the assay. The reaction solution was reacted at room temperature for 30 minutes and then immediately suction-filtered at a low pressure using a glass fiber filter paper. The glass fiber filter paper was washed twice with 250 μl of 50 mM Tris-HCl (pH=7.4) and then added to a counting vial containing 4 ml of ACS-II (manufactured by GE Healthcare (formerly Amersham Biosciences)). Receptor binding-derived radioactivity remaining on the filter paper was measured using a liquid scintillation counter. The nonspecific binding was defined as a binding amount in the presence of 10 μM 8-OH-DPAT.
8-OH-DPAT. Moreover, the Kd value was the binding dissociation constant of [^3H] […] The smaller numeric value of the h-5-HT1A binding inhibition constant Ki means higher affinity for human serotonin 1A receptors.

Data set [3] deals with T1, CYP2D6 (Homo sapiens (Human), UniProt P10635). Nature of the data set: CYP2D6 inhibition screening test (bufuralol 1'-hydroxylation, pooled human liver microsomes). Format: in vitro ADME. As to conditions: substrate bufuralol, 37° C. 10 min. On the procedure: CYP2D6 Inhibition Screening Test
T1 sequence (P10635 whole entry): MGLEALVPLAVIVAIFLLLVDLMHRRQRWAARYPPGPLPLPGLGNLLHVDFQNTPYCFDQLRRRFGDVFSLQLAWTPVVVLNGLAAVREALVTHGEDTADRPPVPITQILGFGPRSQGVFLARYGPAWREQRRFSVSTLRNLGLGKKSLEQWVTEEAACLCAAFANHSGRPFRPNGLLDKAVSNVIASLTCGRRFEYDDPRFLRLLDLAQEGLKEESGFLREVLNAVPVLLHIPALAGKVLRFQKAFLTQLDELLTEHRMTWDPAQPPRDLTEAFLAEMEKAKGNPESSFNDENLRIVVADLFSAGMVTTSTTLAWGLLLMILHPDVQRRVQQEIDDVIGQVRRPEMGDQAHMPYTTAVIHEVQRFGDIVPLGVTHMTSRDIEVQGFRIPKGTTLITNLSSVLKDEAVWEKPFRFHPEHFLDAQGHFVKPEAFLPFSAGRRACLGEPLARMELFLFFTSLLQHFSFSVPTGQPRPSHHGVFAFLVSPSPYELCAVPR
Bufuralol hydrochloride was purchased from Toronto Research Chemicals Inc., and pooled human liver microsomes were purchased from Xenotech, LLC.
Bufuralol hydrochloride was dissolved in DMSO at a concentration of 1.0 mM and then diluted 20-fold with distilled water.
• 1. A 10 mM solution of a test drug in DMSO was serially diluted with DMSO at four 5-fold dilutions to prepare 10, 2, 0.4 and 0.08 mM DMSO solutions. • 2. Each test drug solution of step 1 or DMSO was diluted 160-fold with the human liver microsome solution and dispensed at a concentration of 80 μL/well to a microplate. • 3. 10 μL of the substrate solution and 10 μL of the β-NADPH solution were added to each well of step 2, and the mixture was incubated at 37° C. for 10 min. • 4. The reaction was terminated by the addition of 300 μL of methanol. • 5. The reaction mixture was filtered and analyzed by LC-MS/MS. 3-4 Quantification and Calculation
The amount of 1′-hydroxybufuralol formed was determined by LC-MS/MS, and this value was used as the metabolic activity value of CYP2D6 in each well. The residual activity of each sample-supplemented group was determined by comparison with the activity in the well containing DMSO used as a test drug. IC50 values in CYP2D6 inhibition were determined from the test drug concentrations. […] The larger numeric value of IC50 in CYP2D6 inhibition means weaker CYP2D6 inhibition.

In data set [4] the target is T1, CYP2D6. Nature of the data set: Screening test on contribution ratio of CYP2D6 in human liver microsomal metabolism. The following applies: 1 mg/mL human liver microsomes, 1 μM test substance, with/without 4 μM quinidine; values marked *) are reference values due to relative stability. In kind it is in vitro ADME. On the procedure: Screening Test on Contribution Ratio of CYP2D6 in Human Liver Microsomal Metabolism
0.2 mL of a 50 mM potassium phosphate buffer (pH 7.4) containing 3 mM (final concentration) NADPH (manufactured by Oriental Yeast Co., Ltd.), 1 mg/mL human liver microsomes (manufactured by Xenotech, LLC) and 1 μM test substance was warmed in a water bath at 37° C. for metabolic reaction. After 15- or 30-minute reaction, the reaction was terminated by the addition of a 3-fold volume of methanol with respect to the reaction solution and subsequent stirring. This reaction solution was centrifuged to precipitate proteins. Then, the supernatant was collected and subjected to LC-MS/MS analysis. The results were analyzed as follows:
The test substance was quantified, and time-dependent change in its residual amount was logarithmically plotted. The rate of metabolism was calculated from the slope.
The ratio of the rate of metabolism in the presence of quinidine added at 4 μM (final concentration) to the reaction solution to that in the absence of quinidine was used as the contribution ratio of enzymes other than CYP2D6. The remaining portion was used as the contribution ratio of CYP2D6. Specifically, it was calculated according to the formula: Contribution ratio (%)={1−(Rate of metabolism [in the presence of quinidine]/Rate of metabolism [in the absence of quinidine])}×100 The smaller numeric value of the contribution ratio of CYP2D6 means the small contribution of CYP2D6.
(In general: Liver microsomes are a subcellular fraction often used to study metabolism.)

human serotonin transporter (h-SERT), sequence (P31645 whole entry): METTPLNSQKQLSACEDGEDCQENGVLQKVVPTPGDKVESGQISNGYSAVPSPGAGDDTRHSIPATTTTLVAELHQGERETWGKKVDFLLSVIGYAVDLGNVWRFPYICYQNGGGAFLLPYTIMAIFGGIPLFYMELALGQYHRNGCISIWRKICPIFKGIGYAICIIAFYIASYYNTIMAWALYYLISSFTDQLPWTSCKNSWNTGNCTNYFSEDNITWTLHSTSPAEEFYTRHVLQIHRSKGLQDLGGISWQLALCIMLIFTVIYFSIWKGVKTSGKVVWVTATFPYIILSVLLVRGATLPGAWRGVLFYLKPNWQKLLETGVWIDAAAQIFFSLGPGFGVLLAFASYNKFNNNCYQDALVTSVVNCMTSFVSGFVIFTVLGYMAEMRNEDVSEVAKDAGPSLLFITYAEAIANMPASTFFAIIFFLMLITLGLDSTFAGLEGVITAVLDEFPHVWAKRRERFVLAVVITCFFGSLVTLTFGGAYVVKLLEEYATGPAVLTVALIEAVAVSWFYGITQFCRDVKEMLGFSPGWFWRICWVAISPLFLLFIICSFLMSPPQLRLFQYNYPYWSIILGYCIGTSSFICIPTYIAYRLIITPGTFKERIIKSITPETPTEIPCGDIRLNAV
human serotonin 1A receptor (h-5-HT1A), sequence (P08908 whole entry): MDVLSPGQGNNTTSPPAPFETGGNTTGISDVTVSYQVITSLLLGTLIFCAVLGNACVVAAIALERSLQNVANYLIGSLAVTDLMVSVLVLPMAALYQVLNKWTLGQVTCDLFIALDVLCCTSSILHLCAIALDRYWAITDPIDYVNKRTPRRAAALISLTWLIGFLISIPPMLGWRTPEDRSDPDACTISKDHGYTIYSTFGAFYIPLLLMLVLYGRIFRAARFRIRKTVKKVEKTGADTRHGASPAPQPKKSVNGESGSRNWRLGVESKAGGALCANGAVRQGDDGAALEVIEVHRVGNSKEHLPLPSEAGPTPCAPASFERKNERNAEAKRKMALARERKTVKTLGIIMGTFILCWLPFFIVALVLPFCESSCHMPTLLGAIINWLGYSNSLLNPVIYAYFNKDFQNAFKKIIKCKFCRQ

In the case of `Oc1cc(CC2CCN(CCc3ccc4c(c3)C(O)CCO4)CC2)ccc1Br` (stereo not shown) [Compound 5-15, 6-{2-[4-(4-Bromo-3-hydroxybenzyl)piperidin-1-yl]ethyl}-3,4-dihydro-2H-chromen-4-ol], the Ki in data set [1] was determined as 41 nM; in data set [2], 8.5 nM. 40300 nM corresponded to half-maximal inhibition in data set [3] (IC50). Also, in data set [4], the CYP2D6 contribution ratio is listed as 0*) %.

Consider `O=C1CCOc2ccc(CCN3CCC(Cc4ccc(Br)c(O)c4)CC3)cc21` [Compound 5-8, 6-{2-[4-(4-Bromo-3-hydroxybenzyl)piperidin-1-yl]ethyl}-2,3-dihydro-4H-chromen-4-one], for which the Ki was determined as 6.5 nM in data set [1] and 1.3 nM in data set [2]. The molecule further returned an IC50 in data set [3] of 9900 nM. In addition, in data set [4], the CYP2D6 contribution ratio is 98%.

On to `Cl.O=c1ccoc2ccc(CCN3CCC(Cc4ccc(Br)c(OCCO)c4)CC3)cc12` [Compound 5-7, 6-(2-{4-[4-Bromo-3-(2-hydroxyethoxy)benzyl]piperidin-1-yl}ethyl)-4H-chromen-4-one hydrochloride], for which the Ki came out at 3.5 nM in data set [1] and 2.1 nM in data set [2]. This molecule registered an IC50 in data set [3] of 34900 nM. Further, the CYP2D6 contribution ratio in data set [4] is 9.2*) %.

`COCCOc1cc(CC2CCN(CCc3ccc4occ(O)c(=O)c4c3)CC2)ccc1Br` [Compound 5-14, 6-(2-{4-[4-Bromo-3-(2-methoxyethoxy)benzyl]piperidin-1-yl}ethyl)-3-hydroxy-4H-chromen-4-one]: the Ki in data set [1] came to 0.88 nM; in data set [2], 2.5 nM. Besides, 37600 nM corresponded to half-maximal inhibition in data set [3] (IC50). Moreover, in data set [4], the CYP2D6 contribution ratio is recorded as 8%.

As to `COCCOc1cc(CC2CCN(CCc3ccc4c(c3)C(=O)C(O)CO4)CC2)ccc1Br.Cl` (stereo not shown) [Compound 5-3, 6-(2-{4-[4-Bromo-3-(2-methoxyethoxy)benzyl]piperidin-1-yl}ethyl)-3-hydroxy-2,3-dihydro-4H-chromen-4-one hydrochloride], the Ki in data set [1] was 2.7 nM; in data set [2] it was 7.4 nM. Besides, the midpoint of inhibition in data set [3], the IC50, lay at 36200 nM. Also, the CYP2D6 contribution ratio in data set [4] is 0*) %.

As to `O=C1c2cc(CCN3CCC(Cc4ccc(Br)c(OCCO)c4)CC3)ccc2OCC1O` (stereo not shown) [Compound 5-4, 6-(2-{4-[4-Bromo-3-(2-hydroxyethoxy)benzyl]piperidin-1-yl}ethyl)-3-hydroxy-2,3-dihydro-4H-chromen-4-one], the figures for the Ki in data set [1] and in data set [2] were 18 nM and 5.5 nM, respectively. For the same molecule, in data set [3], the IC50 was over 50000 nM. Further, in data set [4], the CYP2D6 contribution ratio was 0*) %.

Turning to `O=C1c2cc(CCN3CCC(Cc4ccc(Br)c(O)c4)CC3)ccc2OCC1O` (stereo not shown) [Compound 5-5, 6-{2-[4-(4-Bromo-3-hydroxybenzyl)piperidin-1-yl]ethyl}-3-hydroxy-2,3-dihydro-4H-chromen-4-one], the Ki in data set [1] turned out to be 11 nM; in data set [2], 1.1 nM. In data set [3], this molecule displayed an IC50 of 23000 nM. Also, in data set [4], the CYP2D6 contribution ratio is 24%.
